Source: the supplement of paper PMC11208160

Assay: recombinant UMI read abundance after kanamycin selection (control-corrected) (log10(CPM+1)); higher = more efficient recombination; extreme values may be limits of the assay; sequences stand for … in AGTGCAGAGAAAATCGGCCAGTTTTCTCTGCCTGCAGTCCGCATGCCGTGGGACCCCTTGGGTTCTAACCTGTTGCCTAGATTTATGCAGCGGACTGCCTTTCTCCCAAAGTGATAAACCGG…AGGTTGGTTTCACT; site = the 11-nt donor
Outline: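 Under IPTG (0.07 mM) plus kanamycin, or without selection, Escherichia coli carrying a UMI-tagged donor and donor-binding-loop pair library and a target plasmid for the IS621 bridge recombinase were plated in two replicates. Recombinant UMIs were PCR-amplified across the donor–target junction and sequenced. Counts were converted to CPM, averaged over replicates, scaled by control-derived factors and reported as log10(CPM+1).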
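Also: IS621 bridge recombinase in Escherichia coli cells against a fixed T5 target plasmid.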

“GCTTGACCATGGACCGGTTTTCCCGGTAATCCGTATTTGAT (site GCTTGCCCTAT)” and “GCTTGACCATGGACCGGTTTTCCCGGTAATCCGTATTTGAT (site GCTTGGCCTAT)” are within 0.2 log units of each other in “recombinant UMI read abundance (log10)” value: 0.00707 for the first, 0.117 for the second.

“GCTTGACCATGGACCGGTTTTCCCGGTAATCCGTATTTGAT (site GCTTGTCCTAT)” and “GCTTGCCCATGGACCGGTTTTCCCGGTAATCCGTATTTGAA (site GCTTGCCCTAT)” are within 0.2 log units of each other in “recombinant UMI read abundance (log10)” value: 0.00374 for the first, 0 for the second.

“GCTTGCCCATGGACCGGTTTTCCCGGTAATCCGTATTTGAA (site GCTTGCCCTCT)” and “GCTTGCCCATGGACCGGTTTTCCCGGTAATCCGTATTTGAA (site GCTTGCCCTGT)” are within 0.2 log units of each other in “recombinant UMI read abundance (log10)” value: 0.00774 for the first, 0 for the second.

“GCTTGCCCATGGACCGGTTTTCCCGGTAATCCGTATTTGAA (site GCTTGCCCTTT)” and “GCTTGCCCATGGACCGGTTTTCCCGGTAATCCGTATTTGAC (site GCTTGCCCTAT)” are within 0.2 log units of each other in “recombinant UMI read abundance (log10)” value: 0.0264 for the first, 0 for the second.

“GCTTGCCCATGGACCGGTTTTCCCGGTAATCCGTATTTGAC (site GCTTGCCCTCT)” and “GCTTGCCCATGGACCGGTTTTCCCGGTAATCCGTATTTGAC (site GCTTGCCCTGT)” are within 0.2 log units of each other in “recombinant UMI read abundance (log10)” value: 0.0563 for the first, 0 for the second.

First: GCTTGCCCATGGACCGGTTTTCCCGGTAATCCGTATTTGAC (site GCTTGCCCTTT)
Second: GCTTGGACATGGACCGGTTTTCCCGGTAATCCGTATTTGGA (site GCTTGGACTTC)
The “recombinant UMI read abundance (log10)” value of the first is lower: 0.0621 for the first, 0.32 for the second.

Going from “GGAAATCCATGGACCGGTTTTCCCGGTAATCCGTATTTGGG (site GGAAATCCTCC)” to “GGAACGTCATGGACCGGTTTTCCCGGTAATCCGTATTTGTT (site GGAACGTCTAA)”, the “recombinant UMI read abundance (log10)” value rises from 0.00368 to 0.993.

Compared with “GGAACGTCATGGACCGGTTTTCCCGGTAATCCGTATTTGTT (site GGCACGTCTAA)”, “GGAACGTCATGGACCGGTTTTCCCGGTAATCCGTATTTGTT (site GGGACGTCTAA)” is higher in “recombinant UMI read abundance (log10)” value: 0.00816 for the first, 0.28 for the second.

Going from “GGAACGTCATGGACCGGTTTTCCCGGTAATCCGTATTTGTT (site GGTACGTCTAA)” to “GGAACTACATGGACCGGTTTTCCCGGTAATCCGTATTTGCC (site GGAACTACTGG)”, the “recombinant UMI read abundance (log10)” value rises from 0.00512 to 1.05.

Going from “GGAAGCACATGGACCGGTTTTCCCGGTAATCCGTATTTGGG (site GGAAGCACTCC)” to “GGAAGTACATGGACCGGTTTTCCCGGTAATCCGTATTTGAC (site GGAAGTACTGT)”, the “recombinant UMI read abundance (log10)” value rises from 0.0218 to 2.57.

Compared with “GGAAGTGCATGGACCGGTTTTCCCGGTAATCCGTATTTGAA (site GGAAGTGCTTT)”, “GGAATCTCATGGACCGGTTTTCCCGGTAATCCGTATTTGAA (site GGAATCTCTTT)” is higher in “recombinant UMI read abundance (log10)” value: 2.27 for the first, 2.55 for the second.

Compared with “GGAATGTCATGGACCGGTTTTCCCGGTAATCCGTATTTGTT (site GGAATGTCTAA)”, “GGAGACGCATGGACCGGTTTTCCCGGTAATCCGTATTTGGT (site GGAGACGCTAC)” is lower in “recombinant UMI read abundance (log10)” value: 2.44 for the first, 0.461 for the second.

Compared with “GGAGCCTCATGGACCGGTTTTCCCGGTAATCCGTATTTGAC (site GGAGCCTCTGT)”, “GGAGCTACATGGACCGGTTTTCCCGGTAATCCGTATTTGAG (site GGAGCTACTCT)” is lower in “recombinant UMI read abundance (log10)” value: 2.15 for the first, 0.606 for the second.

Going from “GGAGGCGCATGGACCGGTTTTCCCGGTAATCCGTATTTGCC (site GGAGGCGCTGG)” to “GGAGGGGCATGGACCGGTTTTCCCGGTAATCCGTATTTGGT (site GGAGAGGCTAC)”, the “recombinant UMI read abundance (log10)” value falls from 3.44 to 0.335.

Going from “GGAGGGGCATGGACCGGTTTTCCCGGTAATCCGTATTTGGT (site GGAGCGGCTAC)” to “GGAGGGGCATGGACCGGTTTTCCCGGTAATCCGTATTTGGT (site GGAGGGGCTAC)”, the “recombinant UMI read abundance (log10)” value rises from 0.00457 to 0.699.

Going from “GGAGGGGCATGGACCGGTTTTCCCGGTAATCCGTATTTGGT (site GGAGTGGCTAC)” to “GGAGTGGCATGGACCGGTTTTCCCGGTAATCCGTATTTGGG (site GGAGTGGCTAC)”, the “recombinant UMI read abundance (log10)” value rises from 0.0205 to 0.497.

Compared with “GGAGTGGCATGGACCGGTTTTCCCGGTAATCCGTATTTGGG (site GGAGTGGCTCC)”, “GGAGTGGCATGGACCGGTTTTCCCGGTAATCCGTATTTGGG (site GGAGTGGCTGC)” is lower in “recombinant UMI read abundance (log10)” value: 0.779 for the first, 0 for the second.

“GGAGTGGCATGGACCGGTTTTCCCGGTAATCCGTATTTGGG (site GGAGTGGCTTC)” and “GGAGTTGCATGGACCGGTTTTCCCGGTAATCCGTATTTGGT (site GGAGTAGCTAC)” are within 0.2 log units of each other in “recombinant UMI read abundance (log10)” value: 0.00897 for the first, 0.089 for the second.

Going from “GGAGTTGCATGGACCGGTTTTCCCGGTAATCCGTATTTGGT (site GGAGTCGCTAC)” to “GGAGTTGCATGGACCGGTTTTCCCGGTAATCCGTATTTGGT (site GGAGTGGCTAC)”, the “recombinant UMI read abundance (log10)” value falls from 1.05 to 0.00345.

First: GGAGTTGCATGGACCGGTTTTCCCGGTAATCCGTATTTGGT (site GGAGTTGCTAC)
Second: GGATACACATGGACCGGTTTTCCCGGTAATCCGTATTTGGG (site GGATACACTCC)
The “recombinant UMI read abundance (log10)” value of the first is higher: 0.861 for the first, 0.348 for the second.

Compared with “GGATAGACATGGACCGGTTTTCCCGGTAATCCGTATTTGCT (site GGATAGACTAG)”, “GGATAGACATGGACCGGTTTTCCCGGTAATCCGTATTTGCT (site GGATAGACTCG)” is lower in “recombinant UMI read abundance (log10)” value: 2.78 for the first, 0.855 for the second.

Compared with “GGATAGACATGGACCGGTTTTCCCGGTAATCCGTATTTGCT (site GGATAGACTGG)”, “GGATAGACATGGACCGGTTTTCCCGGTAATCCGTATTTGCT (site GGATAGACTTG)” is lower in “recombinant UMI read abundance (log10)” value: 2.33 for the first, 1.1 for the second.

“GGATAGCCATGGACCGGTTTTCCCGGTAATCCGTATTTGAG (site GGATAGCCTCT)” and “GGATAGCCATGGACCGGTTTTCCCGGTAATCCGTATTTGCC (site GGATAGACTGG)” are within 0.2 log units of each other in “recombinant UMI read abundance (log10)” value: 0.00752 for the first, 0 for the second.

“GGATAGCCATGGACCGGTTTTCCCGGTAATCCGTATTTGCC (site GGATAGCCTGG)” and “GGATAGCCATGGACCGGTTTTCCCGGTAATCCGTATTTGCC (site GGATAGGCTGG)” are the same in “recombinant UMI read abundance (log10)” value: 0 for the first, 0 for the second.

Compared with “GGATAGCCATGGACCGGTTTTCCCGGTAATCCGTATTTGCC (site GGATAGTCTGG)”, “GGATAGGCATGGACCGGTTTTCCCGGTAATCCGTATTTGCC (site GGATAGACTGG)” is lower in “recombinant UMI read abundance (log10)” value: 2.42 for the first, 1.94 for the second.

Going from “GGATAGGCATGGACCGGTTTTCCCGGTAATCCGTATTTGCC (site GGATAGCCTGG)” to “GGATAGGCATGGACCGGTTTTCCCGGTAATCCGTATTTGCC (site GGATAGGCTGG)”, the “recombinant UMI read abundance (log10)” value rises from 0.855 to 2.44.

First: GGATAGGCATGGACCGGTTTTCCCGGTAATCCGTATTTGCC (site GGATAGTCTGG)
Second: GGATAGTCATGGACCGGTTTTCCCGGTAATCCGTATTTGCC (site GGATAGACTGG)
The “recombinant UMI read abundance (log10)” value of the first is lower: 0.642 for the first, 2.31 for the second.

“GGATAGTCATGGACCGGTTTTCCCGGTAATCCGTATTTGCC (site GGATAGCCTGG)” and “GGATAGTCATGGACCGGTTTTCCCGGTAATCCGTATTTGCC (site GGATAGGCTGG)” are the same in “recombinant UMI read abundance (log10)” value: 0 for the first, 0 for the second.

Going from “GGATAGTCATGGACCGGTTTTCCCGGTAATCCGTATTTGCC (site GGATAGTCTGG)” to “GGATCATCATGGACCGGTTTTCCCGGTAATCCGTATTTGTG (site GGATCATCTCA)”, the “recombinant UMI read abundance (log10)” value falls from 2.79 to 0.926.

Going from “GGATCGACATGGACCGGTTTTCCCGGTAATCCGTATTTGCC (site GGATAGACTGG)” to “GGATCGACATGGACCGGTTTTCCCGGTAATCCGTATTTGCC (site GGATCGACTGG)”, the “recombinant UMI read abundance (log10)” value falls from 1.48 to 1.28.

“GGATCGACATGGACCGGTTTTCCCGGTAATCCGTATTTGCC (site GGATGGACTGG)” and “GGATCGACATGGACCGGTTTTCCCGGTAATCCGTATTTGCC (site GGATTGACTGG)” are the same in “recombinant UMI read abundance (log10)” value: 0 for the first, 0 for the second.

Going from “GGATCGCCATGGACCGGTTTTCCCGGTAATCCGTATTTGCG (site GGATCGCCTCG)” to “GGATGGACATGGACCGGTTTTCCCGGTAATCCGTATTTGCC (site GGATAGACTGG)”, the “recombinant UMI read abundance (log10)” value rises from 0.0649 to 2.17.

First: GGATGGACATGGACCGGTTTTCCCGGTAATCCGTATTTGCC (site GGATCGACTGG)
Second: GGATGGACATGGACCGGTTTTCCCGGTAATCCGTATTTGCC (site GGATGGACTGG)
The “recombinant UMI read abundance (log10)” value of the first is lower: 0 for the first, 2.47 for the second.

“GGATGGACATGGACCGGTTTTCCCGGTAATCCGTATTTGCC (site GGATTGACTGG)” and “GGATGGCCATGGACCGGTTTTCCCGGTAATCCGTATTTGCA (site GAATGGCCTTG)” are the same in “recombinant UMI read abundance (log10)” value: 0 for the first, 0 for the second.

“GGATGGCCATGGACCGGTTTTCCCGGTAATCCGTATTTGCA (site GCATGGCCTTG)” and “GGATGGCCATGGACCGGTTTTCCCGGTAATCCGTATTTGCA (site GGATGGCCTTG)” are within 0.2 log units of each other in “recombinant UMI read abundance (log10)” value: 0 for the first, 0.0128 for the second.

“GGATGGCCATGGACCGGTTTTCCCGGTAATCCGTATTTGCA (site GTATGGCCTTG)” and “GGATTCGCATGGACCGGTTTTCCCGGTAATCCGTATTTGCG (site GGATTCGCTCG)” are within 0.2 log units of each other in “recombinant UMI read abundance (log10)” value: 0 for the first, 0.0184 for the second.

Compared with “GGATTGACATGGACCGGTTTTCCCGGTAATCCGTATTTGTT (site GGATTGACTAA)”, “GGCAAAACATGGACCGGTTTTCCCGGTAATCCGTATTTGTT (site GGCAAAACTAA)” is lower in “recombinant UMI read abundance (log10)” value: 0.888 for the first, 0.56 for the second.

For “GGCAAGCCATGGACCGGTTTTCCCGGTAATCCGTATTTGAA (site GGCAAACCTTT)”, the “recombinant UMI read abundance (log10)” value was 0.
